The source of these data is patent US8067445B2, “N,N-disubstituted aminoalkylbiphenyl antagonists of prostaglandin D2 receptors” (Panmira Pharmaceuticals, LLC, priority 2008, dated 2011).

One assay concerns the target T1, human DP2 receptor (Homo sapiens, UniProt Q9Y5Y4).
T1 construct: expressed in transfected cells
T1 sequence (Q9Y5Y4 1-395): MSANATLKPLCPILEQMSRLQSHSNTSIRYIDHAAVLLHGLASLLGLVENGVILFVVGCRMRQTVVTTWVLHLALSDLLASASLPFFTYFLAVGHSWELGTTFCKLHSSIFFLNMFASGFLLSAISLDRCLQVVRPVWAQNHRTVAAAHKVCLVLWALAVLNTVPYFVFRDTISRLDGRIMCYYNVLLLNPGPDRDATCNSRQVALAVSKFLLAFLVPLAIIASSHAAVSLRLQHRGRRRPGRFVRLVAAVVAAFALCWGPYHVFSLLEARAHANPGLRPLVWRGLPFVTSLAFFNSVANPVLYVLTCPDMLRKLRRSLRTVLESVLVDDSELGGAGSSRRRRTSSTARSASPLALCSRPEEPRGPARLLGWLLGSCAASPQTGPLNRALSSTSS
The assay is described as follows: DP2/CRTH2 radioligand binding assay ([3H]PGD2). The settings on record: [3H]PGD2 binding, membranes of HEK293 cells expressing human DP2; read-out: hDP2. In a few lines:
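Membranes from HEK293 cells stably expressing recombinant human DP2 incubated 60 min at room temperature with 1 nM [3H]PGD2 and compound in pH 7.4 Hepes/MnCl2/EDTA buffer, ± 0.2% human serum albumin. Bound radioactivity measured after filtration; non-specific binding defined with 10 μM PGD2. IC50 from titration curves.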

Assay [1] deals with T2, recombinant human CRTH2 receptor (Homo sapiens, UniProt Q9Y5Y4).
T2 construct: expressed in transfected cells
T2 sequence (Q9Y5Y4 1-395): T1 sequence (Q9Y5Y4 1-395)
The assay is described as follows: GTPγS binding assay. It counts as biochemical. Conditions: +HSA (0.2% human serum albumin), 80 nM PGD2, CHO cell membranes; read-out: hDP2 GTPγS μM (+HSA). As for the experimental part: The ability of a compound to inhibit binding of GTP to DP2 is assessed via a membrane GTPγS assay. CHO cells stably expressing the recombinant human CRTH2 receptor are resuspended in 10 mM Hepes, 7.4 containing 1 mM DTT, lysed and centrifuged at 75,000×g to pellet the membranes. The membranes are resuspended in 10 mM Hepes, 7.4 containing 1 mM DTT and 10% glycerol. […] The reactions are terminated by rapid filtration through Whatman GF/B glass fibre filter plates. The filter plates are washed 3 times with 1 ml cold Assay Buffer and dried. Scintillant is then added to the plates and the radioactivity retained on the filters is determined on a Packard TopCount (Perkin Elmer). Specific binding is determined as total radioactive binding minus non-specific binding in the absence of the ligand (80 nM PGD2). IC50s were determined using Graphpad prism analysis of drug titration curves.

The next assay addresses T3, human DP1 receptor (Homo sapiens, UniProt Q13258).
T3 construct: tissue Biological Specialty Corporation; host or cells: human platelet membranes
T3 sequence (Q13258 1-359): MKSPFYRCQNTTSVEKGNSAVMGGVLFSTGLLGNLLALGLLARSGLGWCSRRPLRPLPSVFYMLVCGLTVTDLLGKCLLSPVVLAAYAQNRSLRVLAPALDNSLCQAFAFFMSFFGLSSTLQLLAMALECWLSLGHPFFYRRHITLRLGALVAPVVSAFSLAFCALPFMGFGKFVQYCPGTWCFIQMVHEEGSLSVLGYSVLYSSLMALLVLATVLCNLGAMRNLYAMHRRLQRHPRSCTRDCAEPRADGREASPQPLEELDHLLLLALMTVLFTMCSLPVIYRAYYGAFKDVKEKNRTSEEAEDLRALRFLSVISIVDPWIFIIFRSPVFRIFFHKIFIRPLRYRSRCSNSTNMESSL
The assay is described as follows: DP1 radioligand binding assay ([3H]BWA868C, platelet membranes). Conditions: [3H]BWA868C binding, human platelet membranes; read-out: hDP1. In a few lines: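 Human platelet membranes (20 μg protein/well) incubated 60 min at room temperature with 2 nM [3H]BWA868C and compound in 50 mM Hepes, 10 mM MnCl2, 1 mM EDTA, pH 7.4, ± 0.2% human serum albumin. Bound radioactivity measured after filtration; nonspecific binding defined with 10 μM BWA868C; IC50 from titration curves.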

Regarding `CCN(Cc1cccc(OC)c1-c1cccc(CC(=O)O)c1)C(=O)OCc1ccccc1` [Compound 1-122, {2′-[(Benzyloxycarbonyl-ethyl-amino)-methyl]-6′-methoxy-biphenyl-3-yl}-acetic acid], the IC50 at human DP2 receptor was below 300 nM; in assay [1], 1 to 30 µM; at human DP1 receptor it was 300 to 1000 nM.
For `CCN(Cc1cccc(OC)c1-c1cccc(CC(=O)O)c1)C(=O)OCc1cc(F)cc(F)c1` [Compound 1-123, (2′-{[(3,5-Difluoro-benzyloxycarbonyl)-ethyl-amino]-methyl}-6′-methoxy-biphenyl-3-yl)-acetic acid], in that order: below 300 nM, 0.3 to 1 µM and 300 to 1000 nM.
Turning to `CCN(Cc1cc(C(F)(F)F)ccc1-c1ccc(Cl)c(CC(=O)O)c1)C(=O)OCc1ccccc1` [Compound 1-125, {2′-[(Benzyloxycarbonyl-ethyl-amino)-methyl]-4-chloro-4′-trifluoromethyl-biphenyl-3-yl}-acetic acid], the IC50 at human DP2 receptor is below 300 nM; in assay [1], 0.3 to 1 µM; on human DP1 receptor it was 300 to 1000 nM.
Taken in the same sequence, the figures for `CCN(Cc1cc(C(F)(F)F)ccc1-c1cc(F)cc(CC(=O)O)c1)C(=O)OCc1ccccc1` [Compound 1-126, {2′-[(Benzyloxycarbonyl-ethyl-amino)-methyl]-5-fluoro-4′-trifluoromethyl-biphenyl-3-yl}-acetic acid] were below 300 nM, below 0.3 µM and 300 to 1000 nM.
For `CCN(Cc1cc(C(F)(F)F)ccc1-c1ccc(F)c(CC(=O)O)c1)C(=O)OCc1ccccc1` [Compound 1-127, {2′-[(Benzyloxycarbonyl-ethyl-amino)-methyl]-4-fluoro-4′-trifluoromethyl-biphenyl-3-yl}-acetic acid], in that order: below 300 nM, below 0.3 µM and 300 to 1000 nM.
Take `CCN(Cc1cc(C(F)(F)F)ccc1-c1cc(CC(=O)O)ccc1OCc1ccccc1)C(=O)OCc1ccccc1` [Compound 1-128, {6-Benzyloxy-2′-[(benzyloxycarbonyl-ethyl-amino)-methyl]-4′-trifluoromethyl-biphenyl-3-yl}-acetic acid]: the figures for the IC50 (on human DP2 receptor; in assay [1]; on human DP1 receptor) were below 300 nM, below 0.3 µM and 300 to 1000 nM, respectively.
For `CCN(Cc1cc(C(F)(F)F)ccc1-c1cc(CC(=O)O)ccc1OCC1CC1)C(=O)OCc1ccccc1` [Compound 1-130], in that order: below 300 nM, below 0.3 µM and 1000 to 30000 nM.
As to `CCN(Cc1cc(C(F)(F)F)ccc1-c1cc(CC(=O)O)ccc1OC)C(=O)C1(c2ccc(Cl)cc2Cl)CC1` [Compound 1-131, [2′-({[1-(2,4-Dichloro-phenyl)-cyclopropanecarbonyl]-ethyl-amino}-methyl)-6-methoxy-4′-trifluoromethyl-biphenyl-3-yl]-acetic acid], the IC50 is below 300 nM at human DP2 receptor, below 0.3 µM in assay [1] and 1000 to 30000 nM at human DP1 receptor.
Taken in the same sequence, the figures for `CCN(Cc1cc(C(F)(F)F)ccc1-c1cc(CC(=O)O)cc(C(F)(F)F)c1)C(=O)C1CC1` [Compound 1-136, {2′-[(Cyclopropanecarbonyl-ethyl-amino)-methyl]-5,4′-bis-trifluoromethyl-biphenyl-3-yl}-acetic acid] were below 300 nM, below 0.3 µM and 1000 to 30000 nM.
Taken in the same sequence, the figures for `CCOc1ccc(-c2ccc(-c3cc(CC(=O)O)ccc3OC)c(CN(CC)C(=O)C3CC3)c2)cn1` [Compound 1-227, [2′-[(Cyclopropanecarbonyl-ethyl-amino)-methyl]-4′-(6-ethoxy-pyridin-3-yl)-6-methoxy-biphenyl-3-yl]-acetic acid] were below 300 nM, below 0.3 µM and 1000 to 30000 nM.
